Laboratory results published in patent publication US12600742B2, “Markers, conjugates, compositions and methods for hypoxia imaging, mapping, and therapy” (WWIKY BIOSCIENCES INC., priority 2017, dated 2026).

Experiments:
[1] = test system: FaDu cells; assay: Comparison of hypoxia selective uptake of ACN and Pimonidazole in vitro; type: cell-based, human
Method: FaDu cells were grown on coverslips (as described above) and treated simultaneously with 100 μM ACN and 100 μM Pimonidazole. The cells were subsequently exposed to normoxic (20% Oxygen), hypoxic (1% Oxygen) or anoxic (0% Oxygen) conditions for 6 hours, and fixed in 2% PFA. Standard Pimonidazole IHC was performed as described elsewhere using an Alexafluor 647 labelled secondary antibody. Click chemistry was performed as previously described using an Alexafluor 555 conjugated alkyne followed by nuclear staining with Hoechst. Mounted coverslips on glass slides were imaged as described earlier.

[2] = test system: FaDu xenograft tumors; assay: Assessment of ACN as a hypoxia tracer in tumor-bearing mice; type: in vivo, BALB/c nude mice; details: 80 mg/Kg intraperitoneally, 2 hours post-injection
Method: Female BALB/c nude mice (Charles River Laboratories) aged 6 weeks were used and cared for according to the CCAC guidelines. We used a biflanked sub-cutaneous tumor model where the tumor in the left flank was untreated (control) and the tumor in the right flank served as the ‘treatment’ group. We subcutaneously injected 6×10^6 FaDu cells in 0.1 ml of sterile 0.9% NaCl into the upper right flank to form palpable tumors. The tumors were measured daily until the volume reached 10 mm3. The mice were divided into 4 groups and injected intraperitoneally in 0.15 ml 0.9% saline with: 1-80 mg/Kg ACN, 2-80 mg/Kg pimonidazole (Hypoxyprobe), 3-80 mg/Kg ACN:pimonidazole in a 1:1 ratio and 4-0.9% saline control. Mice were sacrificed 2 hours post-injection, tumors removed and frozen in OCT. Seven micron serial sections were taken of each tumor, dried and stored at −80° C.
Tissue sections were air dried for 25 minutes, fixed for 5 minutes in −20° C. acetone; air dried 25 minutes and blocked in PBS with 1% BSA for 20 minutes. Sections were incubated with primary antibodies for small vessel endothelium [1:100 rabbit anti-CD34 (abcam)] or hypoxia [1:100 rabbit anti-pimonidazole Hypoxyprobe)] for 2 hours at room temperature, followed by 3 five minute washes in 1×PBS. […]

[3] = test system: FaDu cells; assay: Crystal violet staining (CVS) assay; type: cell-based, human
Method: FaDu cells (3000 cells/well) were seeded on 96-well microtitre plates and were incubated overnight at 37° C. with 5% CO2 to get attached to the surface. Next day, the cells were treated with increasing doses of drug (1-100 μM) and the plates were incubated under normoxic (20% O2) and hypoxic (0.1% O2) conditions for 72 hours. Culture medium (DMEM and low glucose DMEM) without cells was set for background, according to the experimental set up. After the required incubation period, the media was aspirated, and the plates were allowed to dry for a few minutes followed by addition of crystal violet solution for 20 minutes in order to stain the cells. Subsequently, the dye was discarded, plates were washed with water and let to dry overnight. Methanol (150 μL) was added to the wells and incubated for 20 minutes, so as to dissolve the crystals. Absorbance of the samples was measured spectrophotometrically using an ELISA plate reader at a wavelength of 520 nm. The absorbance of background wavelength (media only) was subtracted from the other absorbance results.
FIG. 10 depicts hypoxic selective cytotoxicity of A-TPZ. […] In CVS assay (i), FaDu cells (3000 cells/well) were seeded on 96 well plates and were incubated overnight to adhere. The cells were then treated with increasing doses of A-TPZ and the plates were exposed to both normoxic (20% O2) and hypoxic (0.1% O2) conditions for 72 hours. Culture medium (DMEM) without cells was set for background. Media was aspirated post-treatment followed by addition of crystal violet solution to stain the cells. Crystals were dissolved using methanol and absorbance of the samples was measured spectrophotometrically. Error bars represent the standard error of the mean. In CFA, (ii), FaDu cells (optimum density-ranging from 300 to 3000 cells) were seeded on 60 mm plates and were incubated overnight to adhere. Next day, the cells were treated with increasing A-TPZ doses and the plates were exposed to both normoxic (20% O2) and hypoxic (0.5% O2) conditions for 24 hours. […] Colonies were stained with crystal violet solution and counted. […]

[4] = test system: FaDu cells; assay: Hypoxia-selective sub-cellular localization of A-TPZ, click chemistry; type: cell-based, human
Method: FaDu cells (˜0.5 million) were seeded on coverslips in 30 mm dishes and were incubated overnight at 37° C. with 5% CO2 to get attached to the surface. Cells were then treated with increasing concentrations (1-30 μM) of drug (reconstituted in DMSO at concentration of 0.5 M) and were incubated under normoxic and hypoxic (<0.1% O2) conditions for 24 hours. Post-treatment, cells were fixed with 2% paraformaldehyde for 20 minutes followed by blocking and permeabilization in 1% BSA and 0.1% Triton-X-100 for 20 minutes. Click reaction was performed in the presence of Alexa 594 alkyne using the Click-iT Cell Reaction Buffer Kit (Thermo Fisher Scientific, no: C10269), according to manufacturer's protocol. Nuclei were counterstained with Hoechst, and images were obtained using confocal microscopy.
FaDu cells were seeded on coverslips and were incubated overnight to adhere. The cells were then treated with increasing doses of A-TPZ for 24 hours under normoxic and hypoxic (<0.1% O2) conditions. Cells were fixed in 2% paraformaldehyde and Click chemistry was performed at room temperature for 30 minutes using Alexa 594 alkyne. Nuclei were counterstained with Hoechst, and images were obtained using confocal microscopy.

[5] = test system: human and murine cancer cell lines; details: literature; cited from earlier work
[6] = test system: FaDu tumors; assay: In vivo evaluation of radiosensitization therapy by IAZA using click mapping; set-up: species or system Nu/Nu mice
Method: Tissue sections were air dried for 25 minutes, fixed for 5 minutes in −20° C. acetone; air dried 25 minutes and blocked in PBS with 1% BSA for 20 minutes. Sections were incubated with primary antibodies for small vessel endothelium [1:100 rabbit anti-CD34 (abcam)] or hypoxia [1:100 rabbit anti-pimonidazole Hypoxyprobe)] for 2 hours at room temperature, followed by 3 five minute washes in 1×PBS. The secondary antibody (Alexafluor 647 goat anti-rabbit 1:1000 Molecular Probes with 1×DAPI to stain DNA) was incubated for 30 minutes at […] room temperature in the dark, followed by 3 five minute washes with 1×PBS. The Click-IT reaction cocktail was incubated with the sections for 30 minutes. Sections were washed 5 times with 1×PBS for 5 minutes and mounted using Mowiol 4-88 (Calbiochem) mounting media. Slides were stored at 4° C. until imaged. Images were obtained by tile scan with a Plan-Apochromat 10X/0.45 numerical aperture lens on a Zeiss 710 confocal microscope using Zen 2011 software. […]
Male Nu/Nu mice (Charles River Laboratories) aged 6 weeks were used and cared for according to the CCAC guidelines. […] The tumors were measured daily until the volume reached 0.4 cm3. […] Temperature and respiration were monitored and recorded every five minutes throughout the scans (Small animal Monitoring and Gating System, SA Instruments Inc.). […] Animals were monitored and tumors measured for up to 16 days. […]

O=[N+]([O-])c1nccn1CC(O)CN1CCCCC1 (stereo not shown) [Pimonidazole, reference compound]
staining detected by oxygen condition ([1]; 100 μM of each compound, 6 h): detected in oxygen deprived cells
sub-cellular distribution of signal ([1]; hypoxic <0.1% O2 cells, 100 μM): mostly concentrated in the cytoplasm
localization in tumor sections [2]: co-localize to hypoxic areas bordering necrotic regions

[N-]=[N+]=NCCOCCNc1n[n+]([O-])c2ccccc2[n+]1[O-] [A-TPZ, 3-(2-(2-Azidoethoxy)ethyl)amino-1,2,4-benzotriazine 1,4-dioxide]
cytotoxicity under hypoxia (CVS) ([3]; 0.1% O2, 72 hours, 1-100 μM): selective cytotoxicity in low oxygen levels
toxicity in the normoxic group (CVS) ([3]; 20% O2, 72 hours): minimal toxicity
toxicity compared to parent compound TPZ ([3]; data not shown): slightly less toxic
dose dependence of signal intensity ([4]; 1-30 μM, hypoxia): dose-dependent
click fluorescence localization in hypoxic cells ([4]; hypoxia (<0.1 O2), 24 hours, 1-30 μM): selective sub-cellular localization
click fluorescence in normoxic drug treated cells ([4]; normoxic, 24 hours): No fluorescence

O=[N+]([O-])c1nccn1[C@@H]1O[C@H](C[125I])[C@@H](O)[C@@H]1O [IAZA]
toxicity to cancer cell lines (reported) [5]: low toxicity
uptake by cells (reported) [5]: selectively taken up by hypoxic cells
effect on tumor and hypoxia, IAZA and radiation co-treated ([6]; 400 mg/Kg IAZA + single dose of 10 Gy radiation): both tumor shrinkage and reduced hypoxia
effect on tumor hypoxia, IAZA alone ([6]; 400 mg/Kg IAZA intraperitoneally, no radiation, ACN click mapping): had no effect on hypoxia
